target: Pyruvate kinase PKM (Homo sapiens) (UniProt P14618); test: Inhibition of PKM2 (unknown origin); set-up: concentration or dose not given beside the values; conditions: concentration not given here
Sequence (P14618 2-531 limits assumed): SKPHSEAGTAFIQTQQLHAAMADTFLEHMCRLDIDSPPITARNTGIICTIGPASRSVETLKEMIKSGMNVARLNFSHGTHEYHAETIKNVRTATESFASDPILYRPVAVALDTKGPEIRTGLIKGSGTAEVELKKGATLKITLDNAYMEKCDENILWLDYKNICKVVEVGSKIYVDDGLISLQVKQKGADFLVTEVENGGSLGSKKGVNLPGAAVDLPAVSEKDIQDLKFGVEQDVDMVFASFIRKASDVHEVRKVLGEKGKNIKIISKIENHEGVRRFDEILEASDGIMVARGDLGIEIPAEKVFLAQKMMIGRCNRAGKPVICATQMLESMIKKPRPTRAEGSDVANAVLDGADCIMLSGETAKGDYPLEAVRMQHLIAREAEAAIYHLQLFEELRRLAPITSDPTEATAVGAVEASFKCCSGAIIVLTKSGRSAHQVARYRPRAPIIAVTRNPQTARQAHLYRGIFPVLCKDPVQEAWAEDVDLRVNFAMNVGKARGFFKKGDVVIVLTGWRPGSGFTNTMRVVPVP

Pyruvate kinase PKM (Homo sapiens), P14618, sequence (P14618 whole entry): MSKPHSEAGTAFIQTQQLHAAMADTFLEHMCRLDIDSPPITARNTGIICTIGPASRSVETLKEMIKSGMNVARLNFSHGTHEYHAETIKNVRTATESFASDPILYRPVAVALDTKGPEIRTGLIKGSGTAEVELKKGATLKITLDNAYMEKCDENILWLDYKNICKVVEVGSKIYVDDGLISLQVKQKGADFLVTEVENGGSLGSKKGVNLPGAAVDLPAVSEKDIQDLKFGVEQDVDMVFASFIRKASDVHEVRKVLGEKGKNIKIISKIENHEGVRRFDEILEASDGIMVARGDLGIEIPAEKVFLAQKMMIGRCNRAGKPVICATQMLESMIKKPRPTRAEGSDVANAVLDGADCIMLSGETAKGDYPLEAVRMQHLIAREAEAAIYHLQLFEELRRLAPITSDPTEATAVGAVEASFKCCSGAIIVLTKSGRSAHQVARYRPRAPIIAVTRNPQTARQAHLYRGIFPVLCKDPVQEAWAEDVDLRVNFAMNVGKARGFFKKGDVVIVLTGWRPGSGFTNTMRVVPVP

Compound | inhibition [%]
N[C@@H](CS)C(=O)O | 20
N[C@@H](Cc1c[nH]c2ccccc12)C(=O)O | 65
N[C@@H](Cc1ccccc1)C(=O)O | 100
O=C(O)[C@@H]1CCCN1 | 65
C[C@@H](O)[C@H](N)C(=O)O | 20
CC[C@H](C)[C@H](N)C(=O)O | 20
CC(C)[C@H](N)C(=O)O | 65
CSCC[C@H](N)C(=O)O | 65
C[C@H](N)C(=O)O | 100

target: Pyruvate kinase PKM (Homo sapiens) (UniProt P14618); test: Inhibition of recombinant PKM2 (unknown origin) Asp178, Asp177, Ser362, Lys367, Hie78, Ser205, Gly128, Thr129, Tyr83, Asn75, Ile51 residues at 40 uM relative to control; conditions: not given

Compound | inhibition [%]
O=C(O[C@@H]1Cc2c(O)cc(O)cc2O[C@@H]1c1cc(O)c(O)c(O)c1)c1cc(O)c(O)c(O)c1 | 49

system: CCc1nnc(SCc2ccccc2F)c2cc3sc(C)cc3n12; test: Binding affinity to PKM2 (unknown origin) assessed as Michaelis-constant; conditions: Homo sapiens; filed as activator

Compound | Km [µM]
Pyruvate kinase PKM (Homo sapiens), P14618 | 480
